# Columns and labels:
# mice with CIA = assay: Histopathological analysis of hind legs, collagen-induced arthritis (CIA) models; type: in vivo; details: H&E and PAS, intramuscular weekly for 6 weeks
# Experimental: (§1) Early Arthritis Model. Fifty mice with the same characteristics were immunized at the base of the tail with 100 μg of chicken type II collagen emulsified in complete Freund's adjuvant. The boost was applied on day 21 at the base of the tail with 100 μg of type II collagen emulsified with Freund's incomplete adjuvant. On the same boosting day, the treatments (a-d) were applied every week for six weeks. Three animals were euthanized in the sixth week and three in the thirteenth week. The spleen, lymph nodes, joint tissue, liver, lungs, kidneys and heart were obtained in order to assess the inflammatory infiltrate, the predominant cell populations and the expression of pro- and anti-inflammatory cytokines.
# (§2) Established Arthritis Model. Arthritis was induced as in the previous model in 50 mice and the treatments were applied intramuscularly, after 2 weeks of the boost, every week for 6 weeks. Three animals were euthanized in the eighth week and three in the fifteenth week. The spleen, lymph nodes, joint tissue, liver, lungs, kidneys and heart were obtained in order to assess the inflammatory infiltrate, the predominant cell populations and the expression of pro- and anti-inflammatory cytokines.
# Histological evaluation. The inflammatory infiltrate and tissue architecture were evaluated by H&E and Masson's trichrome staining and the content of proteoglycans, with the PAS technique. […]
# Treg (CD4+/FOXP3+) cells = assay: FACS of spleen Foxp3+ regulatory T cells in CIA models; type: in vivo, mice; details: early and long-standing arthritis, first and second sacrifice, vs placebo
# Experimental: as §1, §2
# Cytometric evaluation. Using FACS, the percentage of populations of Th1 ([…]), Th2 (CD4^+/IL-4^+), Treg (CD4^+/FOXP3^+) Th17 (CD4^+/IL-17^+) and dendritic (CD4−/CD11c^+) cells in spleen cells.
# FIG. 10. Effect of type I polymerized collagen in the early (preventive) and long-standing (late or palliative) arthritis model on the percentage of spleen CD4+ T cell subpopulations. (A) Spleen cells obtained ex vivo in the early arthritis model during the first sacrifice. (B) Spleen cells obtained ex vivo in the early arthritis model during the second sacrifice. (C) Spleen cells obtained ex vivo in the long-standing arthritis model during the first sacrifice. […] The intracellular production of IL-17A, IL-4, IFN-γ and Foxp3 by CD4+ T cells was detected by flow cytometry. The results are representative of 6 mice analyzed in each group. […]
structure (smiles),measurement,setting,value
"CN(Cc1cnc2nc(N)nc(N)c2n1)c1ccc(C(=O)N[C@@H](CCC(=O)O)C(=O)O)cc1 [MTX, methotrexate, reference compound]","histopathology of joint tissue (inflammation, tissue architecture)",mice with CIA,induced some tissue abnormalities
same,Foxp3+ regulatory T cells,Treg (CD4+/FOXP3+) cells,significant reduction
